Assay results from patent US9642354B2, “Method of freezing cells” (Cellulis, S.L., priority 2010, dated 2017).

Legend:
BALB3T3 cells = assay: Cytotoxic test (MTT assay) on Balb3T3 fibroblasts thawed from two-layer frozen 96-well plate; assay type: cell-based; details: 24 h treatment started 24 h post-thawing, 5-Fluorouracil 20, 40, 80, 100 μg/ml, Tamoxifen 0.02, 1.25, 2.5, 5 μM
Description: (§1) Balb3T3 (ATCC, LCC Standards) fibroblasts and smooth muscle aortic cells (SMAC, freshly isolated from Sprague Dawley rats, Harlan Laboratories) primary cells were cultured in complete culture medium consisting of endotoxin-free DMEM (Sigma-Aldrich) supplemented with 10% FCS, 100 μg/ml penicillin and 100 IU/ml streptomycin (Sigma-Aldrich). […] The resulting cells were allowed to grow for twelve days prior to cryopresentation. Both cell types were grown in flasks until they were 80% confluent and then harvested. Harvesting took place by incubating cells in 5 ml of PBS with 0.05% EDTA for 2 minutes, and final detachment was achieved by incubation in 0.1% trypsin and 0.05% EDTA for another 5 minutes. Cells were centrifuged at 400×G for 5 minutes. Then, a total of 4.8 ml of a solution at 4° C. containing 50,000 cells/50 μl of freezing 80% DMEM, 10% FCS, 10% DMSO (AppliChem) medium was prepared (cell density determined by haemocytometer), forming the so-called freezing solution. Besides, 100 μl of complete culture medium was disposed in each cell of a 96-well plate and frozen down to −80° C. Once frozen, the plate is recovered and 50 μl/well of the said freezing solution were added on top each well containing 100 μl of complete culture medium already frozen. […] Twenty four hours later a MTT assay was performed and cytotoxicity was calculated according to the absorbance values. […]

Smac cells = assay: Cytotoxic test (MTT assay) on smooth muscle aortic cells (SMAC) thawed from two-layer frozen 96-well plate; assay type: cell-based, rat; details: 24 h treatment started 24 h post-thawing, 5-Fluorouracil 20, 40, 80, 100 μg/ml, Tamoxifen 0.02, 1.25, 2.5, 5 μM
Description: as §1

Row | SMILES | cytotoxic response of BALB3T3 cells (BALB3T3 cells) | cytotoxic response of Smac cells (Smac cells)
1 | O=c1[nH]cc(F)c(=O)[nH]1 [5-Fluorouracil] | Concentration dependent cytotoxic response | Concentration dependent cytotoxic response
2 | CC/C(=C(\c1ccccc1)c1ccc(OCCN(C)C)cc1)c1ccccc1 [Tamoxifen] | Concentration dependent cytotoxic response | Concentration dependent cytotoxic response
